# Active and inactive are the calls of the source.
# Tests used:
# [1] = target: Alkaline phosphatase, placental type (Homo sapiens, UniProt P05187); test: PLAP enzyme inhibitors, confirmation, biochemical, luminescence (AID 1512); format: functional
# [2] = target: Glyceraldehyde-3-phosphate dehydrogenase (Homo sapiens, UniProt P04406)
# [3] = target: T1, Alkaline phosphatase, tissue-nonspecific isozyme (Homo sapiens, UniProt P05186); test: human TNAP enzyme inhibitors, SAR follow-up, biochemical, luminescent, dose response (AID 1056)
# T1 sequence (P05186 whole entry): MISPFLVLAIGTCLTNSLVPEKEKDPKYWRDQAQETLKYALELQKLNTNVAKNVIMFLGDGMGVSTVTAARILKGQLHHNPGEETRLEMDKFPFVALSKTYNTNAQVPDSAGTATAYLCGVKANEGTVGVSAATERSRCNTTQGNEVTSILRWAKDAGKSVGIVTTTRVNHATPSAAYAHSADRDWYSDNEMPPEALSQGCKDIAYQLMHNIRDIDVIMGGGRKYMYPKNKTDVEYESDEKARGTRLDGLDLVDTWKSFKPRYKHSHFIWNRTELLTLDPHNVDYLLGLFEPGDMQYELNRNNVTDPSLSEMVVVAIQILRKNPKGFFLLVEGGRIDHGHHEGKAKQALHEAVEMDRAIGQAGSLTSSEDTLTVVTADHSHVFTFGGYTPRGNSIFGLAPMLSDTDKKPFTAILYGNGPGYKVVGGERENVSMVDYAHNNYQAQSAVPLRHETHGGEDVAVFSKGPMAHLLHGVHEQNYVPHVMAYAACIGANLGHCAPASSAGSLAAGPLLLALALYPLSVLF
# [4] = target: T2, Orexin/Hypocretin receptor type 1 (Homo sapiens, UniProt O43613); test: Homogeneous Time Resolved Fluorescence (HTRF)-based cell-based high throughput dose response assay for antagonists of the orexin 1 receptor (OX1R; HCRTR1). [Related pubchem assays (depositor defined):AID434989, AID435008, AID463079, AID485270, AID492963, AID492964, AID492965, AID493232, AID504717, AID504718]; format: functional
# T2 sequence (O43613 whole entry): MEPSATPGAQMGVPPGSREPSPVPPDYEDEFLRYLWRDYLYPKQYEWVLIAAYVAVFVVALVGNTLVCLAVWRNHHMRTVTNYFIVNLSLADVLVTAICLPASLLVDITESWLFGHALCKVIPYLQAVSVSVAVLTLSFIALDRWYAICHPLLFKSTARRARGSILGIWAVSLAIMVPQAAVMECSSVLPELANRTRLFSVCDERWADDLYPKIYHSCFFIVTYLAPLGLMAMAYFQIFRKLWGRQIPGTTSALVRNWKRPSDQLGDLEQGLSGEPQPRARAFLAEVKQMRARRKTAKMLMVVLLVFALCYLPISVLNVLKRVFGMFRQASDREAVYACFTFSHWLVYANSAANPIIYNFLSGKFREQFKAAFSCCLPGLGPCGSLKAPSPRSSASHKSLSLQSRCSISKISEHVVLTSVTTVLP
# [5] = target: T3, Replicative DNA helicase DnaB (Mycobacterium tuberculosis, UniProt P9WMR3); test: DnaB intein splicing inhibitors, dose response, biochemical, cell-free fluorescence (AID 449749); format: functional
# T3 sequence (P9WMR3 whole entry): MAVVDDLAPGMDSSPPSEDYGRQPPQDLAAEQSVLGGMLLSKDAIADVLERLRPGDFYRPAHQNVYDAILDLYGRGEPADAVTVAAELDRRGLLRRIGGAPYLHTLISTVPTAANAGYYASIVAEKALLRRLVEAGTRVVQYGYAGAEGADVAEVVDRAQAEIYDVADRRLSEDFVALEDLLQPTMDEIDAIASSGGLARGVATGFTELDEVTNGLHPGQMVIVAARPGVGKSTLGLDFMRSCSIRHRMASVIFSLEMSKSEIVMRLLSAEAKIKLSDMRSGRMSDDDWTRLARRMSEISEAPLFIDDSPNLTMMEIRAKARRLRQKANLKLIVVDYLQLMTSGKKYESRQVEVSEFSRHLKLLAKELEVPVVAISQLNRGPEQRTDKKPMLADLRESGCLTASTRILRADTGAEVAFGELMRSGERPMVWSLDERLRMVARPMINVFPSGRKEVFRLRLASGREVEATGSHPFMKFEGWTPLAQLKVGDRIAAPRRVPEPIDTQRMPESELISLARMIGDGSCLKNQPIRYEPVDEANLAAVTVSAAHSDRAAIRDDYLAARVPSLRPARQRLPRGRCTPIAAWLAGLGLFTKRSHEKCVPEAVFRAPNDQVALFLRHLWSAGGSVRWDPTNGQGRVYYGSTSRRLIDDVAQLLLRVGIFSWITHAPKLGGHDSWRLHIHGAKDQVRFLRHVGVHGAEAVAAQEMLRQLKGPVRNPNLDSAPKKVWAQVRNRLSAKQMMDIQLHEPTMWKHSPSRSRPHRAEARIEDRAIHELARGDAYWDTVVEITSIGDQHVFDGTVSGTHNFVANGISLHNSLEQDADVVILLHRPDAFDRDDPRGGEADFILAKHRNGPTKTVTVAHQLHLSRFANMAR
# CHO-K1 = test: Counterscreen for antagonists of the orexin 1 receptor (OX1R; HCRTR1): Homogeneous time resolved fluorescence (HTRF)-based cell-based dose response assay to identify antagonists of the parental CHO-K1 cell line. [Related pubchem assays (depositor defined):AID434989, AID435008, AID463079, AID485270, AID492963, AID492964, AID492965, AID493232, AID504699, AID504701]; format: functional; conditions: Cricetulus griseus;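 further: potency for inhibition of ATP-stimulated IP1 production as antagonists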
# Protein RecA = target: T4, Protein RecA (Mycobacterium tuberculosis, UniProt P9WHJ3); test: Fluorescence Cell-Free Homogeneous Dose Retest to Identify Inhibitors of RecA-Intein Splicing Activity. [Related pubchem assays (depositor defined):AID2097, AID2223, AID489010, AID492950]; format: functional
# T4 sequence (P9WHJ3 whole entry): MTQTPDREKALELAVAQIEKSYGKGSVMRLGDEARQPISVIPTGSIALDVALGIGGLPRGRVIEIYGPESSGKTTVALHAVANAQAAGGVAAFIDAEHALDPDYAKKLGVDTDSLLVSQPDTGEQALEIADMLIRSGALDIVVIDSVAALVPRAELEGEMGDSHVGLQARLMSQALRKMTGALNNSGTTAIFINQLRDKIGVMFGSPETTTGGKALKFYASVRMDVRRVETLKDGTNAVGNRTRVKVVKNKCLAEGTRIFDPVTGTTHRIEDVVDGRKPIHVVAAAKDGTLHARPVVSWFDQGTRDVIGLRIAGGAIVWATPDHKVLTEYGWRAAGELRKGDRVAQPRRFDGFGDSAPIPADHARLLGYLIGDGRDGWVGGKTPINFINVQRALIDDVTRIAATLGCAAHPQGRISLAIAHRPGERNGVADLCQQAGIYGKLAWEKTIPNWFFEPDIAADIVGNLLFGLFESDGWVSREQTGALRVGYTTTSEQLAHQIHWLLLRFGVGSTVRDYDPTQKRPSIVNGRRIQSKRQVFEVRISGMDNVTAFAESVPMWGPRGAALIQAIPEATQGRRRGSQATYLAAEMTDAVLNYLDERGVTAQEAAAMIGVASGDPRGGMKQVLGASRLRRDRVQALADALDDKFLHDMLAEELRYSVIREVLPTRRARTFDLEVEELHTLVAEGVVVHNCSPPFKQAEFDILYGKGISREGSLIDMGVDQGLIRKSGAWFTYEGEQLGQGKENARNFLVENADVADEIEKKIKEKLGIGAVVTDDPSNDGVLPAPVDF
# [6] = target: T2, Orexin/Hypocretin receptor type 1; test: Fluorescence-based cell-based high throughput dose response assay for antagonists of the orexin 1 receptor (OX1R; HCRTR1). [Related pubchem assays (depositor defined):AID434989, AID435008, AID463079, AID485270, AID492963, AID492964, AID492965, AID493232, AID504717, AID504718]; format: functional
# [7] = Counterscreen for antagonists of the orexin 1 receptor (OX1R; HCRTR1): Fluorescence-based cell-based high throughput dose response assay to identify antagonists of the parental CHO cell line. [Related pubchem assays (depositor defined):AID434989, AID435008, AID463079, AID485270, AID492963, AID492964, AID492965, AID493232, AID504699, AID504701]; format: functional
# [8] = target: Intestinal-type alkaline phosphatase (Homo sapiens, UniProt P09923); test: human intestinal alkaline phosphatase activators, dose response, biochemical, luminescence, uHTS hits (AID 463120); format: functional
# Chain of Intestinal-type alkaline phosphatase (P09923 whole entry): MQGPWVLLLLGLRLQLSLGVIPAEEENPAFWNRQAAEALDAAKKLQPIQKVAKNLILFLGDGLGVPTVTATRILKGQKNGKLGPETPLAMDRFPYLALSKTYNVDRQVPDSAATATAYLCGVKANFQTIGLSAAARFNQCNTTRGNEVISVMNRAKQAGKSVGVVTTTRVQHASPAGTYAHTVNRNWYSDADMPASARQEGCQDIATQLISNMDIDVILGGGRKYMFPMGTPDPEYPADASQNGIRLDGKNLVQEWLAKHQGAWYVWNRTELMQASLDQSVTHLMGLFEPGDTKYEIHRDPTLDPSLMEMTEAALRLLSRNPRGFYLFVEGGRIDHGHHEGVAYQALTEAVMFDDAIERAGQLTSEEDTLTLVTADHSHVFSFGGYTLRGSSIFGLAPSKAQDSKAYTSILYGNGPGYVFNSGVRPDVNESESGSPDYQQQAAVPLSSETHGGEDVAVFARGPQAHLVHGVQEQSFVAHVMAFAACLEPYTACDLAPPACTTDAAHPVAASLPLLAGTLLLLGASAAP
# [9] = Intein inhibitors as potential Tuberculosis drugs, a cytotoxicity screen. [Related pubchem assays (depositor defined):AID2221, AID2223, AID434968, AID435010, AID449749, AID449750, AID489010]; format: functional
# [10] = target: T5, Heat shock factor protein 1 (Mus musculus, UniProt P38532); test: HSF1 potentiators in luciferase reporter cells, confirmation, cell-based, NIH3T3, luminescence, dose retest (AID 435004); format: functional;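 further: stress induced by proteasome inhibitor MG132 added 30 min after compound; luciferase reporter driven by HSF1 response element in NIH3T3 cells; actives raise luminescence as potentiators of the MG132 stress response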
# T5 sequence (P38532 whole entry): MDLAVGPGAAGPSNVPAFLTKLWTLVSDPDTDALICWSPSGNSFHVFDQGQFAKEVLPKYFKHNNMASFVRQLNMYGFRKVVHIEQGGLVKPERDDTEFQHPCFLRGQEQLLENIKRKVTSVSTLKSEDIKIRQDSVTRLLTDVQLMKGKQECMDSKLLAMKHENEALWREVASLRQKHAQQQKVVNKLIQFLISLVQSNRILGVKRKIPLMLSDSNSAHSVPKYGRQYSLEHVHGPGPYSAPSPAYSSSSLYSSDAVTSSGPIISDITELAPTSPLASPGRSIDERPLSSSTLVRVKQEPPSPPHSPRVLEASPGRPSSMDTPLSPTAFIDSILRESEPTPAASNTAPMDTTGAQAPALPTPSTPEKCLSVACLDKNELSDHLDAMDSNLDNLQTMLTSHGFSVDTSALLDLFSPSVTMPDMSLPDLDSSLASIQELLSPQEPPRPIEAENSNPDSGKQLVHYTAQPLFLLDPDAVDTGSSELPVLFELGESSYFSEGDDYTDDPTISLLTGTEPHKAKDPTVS
# [11] = target: T6, Long-chain-fatty-acid--AMP ligase FadD28 (Mycobacterium tuberculosis, UniProt P9WQ59); test: Fluorescence polarization aasay to screen for inhibitors that compete for the binding of FadD28 to a bisubstrate Measured in Biochemical System Using Plate Reader - 2147-01_Inhibitor_Dose_CherryPick_Activity.; format: functional, Mycobacterium tuberculosis H37Rv
# T6 sequence (P9WQ59 whole entry): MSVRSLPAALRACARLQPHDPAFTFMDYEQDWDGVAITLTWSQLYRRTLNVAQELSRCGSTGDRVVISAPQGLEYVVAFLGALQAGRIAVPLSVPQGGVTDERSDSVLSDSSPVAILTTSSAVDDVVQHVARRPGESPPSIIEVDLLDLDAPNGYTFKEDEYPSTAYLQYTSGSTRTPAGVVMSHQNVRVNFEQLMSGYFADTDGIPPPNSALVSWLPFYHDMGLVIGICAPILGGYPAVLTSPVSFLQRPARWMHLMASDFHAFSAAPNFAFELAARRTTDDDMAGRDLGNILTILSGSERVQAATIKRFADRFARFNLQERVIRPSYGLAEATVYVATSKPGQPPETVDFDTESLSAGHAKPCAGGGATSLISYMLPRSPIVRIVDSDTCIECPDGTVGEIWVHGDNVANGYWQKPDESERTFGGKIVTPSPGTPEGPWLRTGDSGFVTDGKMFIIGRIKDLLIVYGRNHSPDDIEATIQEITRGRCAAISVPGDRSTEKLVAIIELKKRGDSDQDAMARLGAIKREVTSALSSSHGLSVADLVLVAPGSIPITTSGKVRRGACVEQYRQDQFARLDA
# [12] = C. albicans growth with fluconazole, confirmation, fluorescence, retest (AID 2467); format: functional, cell-based
# [13] = NIH-3T3 fibroblast cytotoxicity, dose response, cytotoxicity control, cell-based, fluorescence, Alamar Blue, secondary assay (AID 2327); format: functional;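 further: NIH-3T3 mouse fibroblasts cultured with fluconazole at 8 µg/mL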
# [14] = target: T7, Voltage-gated N-type calcium channel alpha-1B subunit/Amyloid beta A4 precursor protein-binding family A member 1 (Homo sapiens, UniProt Q00975+Q02410); format: protein assay
# T7 sequence (Q00975 whole entry): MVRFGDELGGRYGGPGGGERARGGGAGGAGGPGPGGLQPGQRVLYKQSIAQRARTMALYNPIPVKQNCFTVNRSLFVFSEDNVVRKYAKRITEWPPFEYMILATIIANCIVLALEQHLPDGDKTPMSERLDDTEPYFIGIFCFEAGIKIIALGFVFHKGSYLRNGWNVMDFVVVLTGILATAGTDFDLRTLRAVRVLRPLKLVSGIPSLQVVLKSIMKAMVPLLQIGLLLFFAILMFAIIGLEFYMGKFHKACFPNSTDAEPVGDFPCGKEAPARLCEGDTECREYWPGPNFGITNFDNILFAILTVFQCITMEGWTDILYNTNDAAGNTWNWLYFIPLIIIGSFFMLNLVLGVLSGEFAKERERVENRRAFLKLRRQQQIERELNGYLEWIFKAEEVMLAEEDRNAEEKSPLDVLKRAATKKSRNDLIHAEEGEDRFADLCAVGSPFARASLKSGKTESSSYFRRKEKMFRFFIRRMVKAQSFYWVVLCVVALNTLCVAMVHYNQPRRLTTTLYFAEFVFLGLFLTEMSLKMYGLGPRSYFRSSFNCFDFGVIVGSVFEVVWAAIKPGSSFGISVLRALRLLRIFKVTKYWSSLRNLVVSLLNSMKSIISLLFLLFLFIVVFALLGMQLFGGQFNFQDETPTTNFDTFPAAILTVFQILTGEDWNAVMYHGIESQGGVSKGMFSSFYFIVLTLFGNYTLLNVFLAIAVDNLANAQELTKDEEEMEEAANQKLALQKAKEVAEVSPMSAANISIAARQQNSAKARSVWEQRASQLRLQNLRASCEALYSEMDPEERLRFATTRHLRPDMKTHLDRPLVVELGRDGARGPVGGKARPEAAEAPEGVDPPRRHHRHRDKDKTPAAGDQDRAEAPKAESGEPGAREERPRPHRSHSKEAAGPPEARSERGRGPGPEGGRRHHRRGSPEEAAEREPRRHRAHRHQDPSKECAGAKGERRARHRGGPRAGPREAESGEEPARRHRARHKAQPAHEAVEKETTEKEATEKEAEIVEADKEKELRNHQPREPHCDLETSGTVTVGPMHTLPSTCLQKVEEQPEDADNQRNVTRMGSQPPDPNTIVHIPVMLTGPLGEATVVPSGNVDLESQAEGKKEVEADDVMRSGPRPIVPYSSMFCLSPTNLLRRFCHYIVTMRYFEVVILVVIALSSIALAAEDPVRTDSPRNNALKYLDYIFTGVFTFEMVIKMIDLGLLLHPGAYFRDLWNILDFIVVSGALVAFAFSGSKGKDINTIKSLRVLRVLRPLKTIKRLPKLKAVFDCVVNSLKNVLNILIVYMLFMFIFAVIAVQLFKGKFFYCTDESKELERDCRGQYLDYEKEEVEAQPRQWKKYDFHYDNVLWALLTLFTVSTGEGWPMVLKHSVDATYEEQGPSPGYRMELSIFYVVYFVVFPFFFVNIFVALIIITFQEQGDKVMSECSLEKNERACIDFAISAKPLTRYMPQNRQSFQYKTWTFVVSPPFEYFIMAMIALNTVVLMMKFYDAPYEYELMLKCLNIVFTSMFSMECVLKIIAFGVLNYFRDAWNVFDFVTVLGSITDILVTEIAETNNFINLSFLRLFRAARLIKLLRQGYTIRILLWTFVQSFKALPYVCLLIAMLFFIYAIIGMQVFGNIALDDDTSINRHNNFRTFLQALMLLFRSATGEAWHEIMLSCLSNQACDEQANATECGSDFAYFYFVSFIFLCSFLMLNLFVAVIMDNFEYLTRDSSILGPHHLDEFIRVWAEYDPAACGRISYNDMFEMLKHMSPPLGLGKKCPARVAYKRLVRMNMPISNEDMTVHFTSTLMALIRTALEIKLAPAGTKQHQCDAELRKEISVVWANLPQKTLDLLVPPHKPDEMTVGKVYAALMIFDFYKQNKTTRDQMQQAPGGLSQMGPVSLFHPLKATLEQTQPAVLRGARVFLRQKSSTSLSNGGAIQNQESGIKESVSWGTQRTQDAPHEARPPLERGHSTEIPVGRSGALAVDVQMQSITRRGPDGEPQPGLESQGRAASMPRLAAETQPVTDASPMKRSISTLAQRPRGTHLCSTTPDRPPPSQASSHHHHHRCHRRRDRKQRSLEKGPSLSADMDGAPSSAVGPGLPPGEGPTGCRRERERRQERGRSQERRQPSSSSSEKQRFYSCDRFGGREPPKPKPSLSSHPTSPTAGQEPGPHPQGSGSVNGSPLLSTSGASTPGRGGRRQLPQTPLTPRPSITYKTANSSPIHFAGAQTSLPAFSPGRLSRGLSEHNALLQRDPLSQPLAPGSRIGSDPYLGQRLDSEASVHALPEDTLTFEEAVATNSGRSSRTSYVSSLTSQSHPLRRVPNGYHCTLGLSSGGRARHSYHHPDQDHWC
# T7 sequence (Q02410 whole entry): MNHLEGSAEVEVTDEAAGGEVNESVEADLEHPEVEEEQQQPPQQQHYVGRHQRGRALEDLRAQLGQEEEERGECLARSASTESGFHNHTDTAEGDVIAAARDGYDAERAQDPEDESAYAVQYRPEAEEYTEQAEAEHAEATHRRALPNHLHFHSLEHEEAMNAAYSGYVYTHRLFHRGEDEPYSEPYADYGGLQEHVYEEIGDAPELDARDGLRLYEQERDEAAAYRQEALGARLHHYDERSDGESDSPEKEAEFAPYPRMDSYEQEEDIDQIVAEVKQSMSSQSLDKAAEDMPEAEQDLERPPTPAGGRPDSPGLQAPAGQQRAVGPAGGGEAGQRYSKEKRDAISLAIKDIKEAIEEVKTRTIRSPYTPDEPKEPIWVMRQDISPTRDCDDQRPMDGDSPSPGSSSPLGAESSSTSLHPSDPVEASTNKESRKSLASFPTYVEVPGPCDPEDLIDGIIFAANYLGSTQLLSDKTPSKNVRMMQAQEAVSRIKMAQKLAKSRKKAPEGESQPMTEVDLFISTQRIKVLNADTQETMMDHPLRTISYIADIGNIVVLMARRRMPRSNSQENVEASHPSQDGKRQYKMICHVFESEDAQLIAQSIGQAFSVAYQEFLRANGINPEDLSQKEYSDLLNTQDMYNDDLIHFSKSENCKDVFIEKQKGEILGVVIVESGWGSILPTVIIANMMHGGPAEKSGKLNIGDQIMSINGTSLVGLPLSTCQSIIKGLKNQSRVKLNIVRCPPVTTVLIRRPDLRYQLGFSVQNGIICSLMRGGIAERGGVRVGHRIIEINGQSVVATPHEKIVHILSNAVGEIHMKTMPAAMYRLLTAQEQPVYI
# [15] = target: T7, Voltage-gated N-type calcium channel alpha-1B subunit/Amyloid beta A4 precursor protein-binding family A member 1; format: protein assay; remark: listed apart in the source
# [16] = target: Polyadenylate-binding protein 1 (Homo sapiens, UniProt P11940); test: PABP poly(A) RNA binding inhibitors, primary screen, biochemical, fluorescence polarization, uHTS (AID 2014)
# Chain of Polyadenylate-binding protein 1 (P11940 whole entry): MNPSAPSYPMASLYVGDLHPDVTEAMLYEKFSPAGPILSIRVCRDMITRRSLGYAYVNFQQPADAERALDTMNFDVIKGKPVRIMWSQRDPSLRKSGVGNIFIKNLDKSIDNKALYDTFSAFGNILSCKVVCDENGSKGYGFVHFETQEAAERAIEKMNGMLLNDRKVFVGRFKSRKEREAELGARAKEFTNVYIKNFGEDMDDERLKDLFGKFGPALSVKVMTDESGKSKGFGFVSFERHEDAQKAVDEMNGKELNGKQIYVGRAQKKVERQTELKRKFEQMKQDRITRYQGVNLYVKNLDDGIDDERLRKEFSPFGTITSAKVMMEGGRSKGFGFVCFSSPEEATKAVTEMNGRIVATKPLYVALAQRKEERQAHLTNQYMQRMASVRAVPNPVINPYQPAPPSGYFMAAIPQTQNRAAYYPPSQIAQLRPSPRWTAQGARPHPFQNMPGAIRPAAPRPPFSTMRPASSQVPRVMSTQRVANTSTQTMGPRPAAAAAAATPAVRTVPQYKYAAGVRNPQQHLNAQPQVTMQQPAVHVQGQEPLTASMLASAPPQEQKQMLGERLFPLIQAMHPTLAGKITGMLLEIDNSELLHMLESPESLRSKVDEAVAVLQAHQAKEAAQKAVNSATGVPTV
# [17] = target: Eukaryotic translation initiation factor 4H (Homo sapiens, UniProt Q15056); test: human eIF4H binding inhibitors, primary screen, translation initiation inhibitor project, biochemical, uHTS, fluorescence polarization (AID 2012)
# 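Wherever CC50 is given: cells exposed to compound for 72 hours before luminescence readout.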
# Chain of Alkaline phosphatase, placental type (P05187 whole entry): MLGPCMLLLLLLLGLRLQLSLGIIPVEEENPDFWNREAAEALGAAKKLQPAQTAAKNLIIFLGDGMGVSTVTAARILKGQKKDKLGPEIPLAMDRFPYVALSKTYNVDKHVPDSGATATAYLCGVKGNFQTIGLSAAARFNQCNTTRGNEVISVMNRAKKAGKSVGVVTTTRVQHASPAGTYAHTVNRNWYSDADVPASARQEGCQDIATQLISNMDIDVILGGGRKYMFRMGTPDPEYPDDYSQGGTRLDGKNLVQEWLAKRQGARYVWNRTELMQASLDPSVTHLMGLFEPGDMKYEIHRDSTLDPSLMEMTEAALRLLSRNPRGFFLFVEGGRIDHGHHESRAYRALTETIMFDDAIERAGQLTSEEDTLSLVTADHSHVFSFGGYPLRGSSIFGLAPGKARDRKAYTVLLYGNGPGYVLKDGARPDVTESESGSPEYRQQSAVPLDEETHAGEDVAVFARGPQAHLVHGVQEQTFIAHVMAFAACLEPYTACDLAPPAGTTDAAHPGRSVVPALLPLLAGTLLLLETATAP
structure (smiles),measurement,setting,value
CC1(C)CC(=O)c2c(n[nH]c2Cc2ccccc2)C1,IC50,[1],> 100 µM (inactive)
same,IC50,[2],> 100 µM (not active)
same,IC50,[3],1.24 µM (active)
Cc1ccc(/C=C2\Sc3ccccc3C2=O)s1,IC50,[4],23.1 µM (inactive)
same,AC50,[5],11.8 µM (active)
same,IC50,CHO-K1,> 66.2 µM (inactive)
same,EC50,Protein RecA,4.87 µM (active)
same,IC50,[6],22.5 µM (inactive)
same,IC50,[7],> 49.7 µM (inactive)
Cc1ccc(NC(=O)C2CC(=O)Nc3nc4ccccc4n32)c(C)c1 (centres undefined),EC50,[8],34.5 µM (active)
Cc1ccc(Sc2ccc(NC(=O)CCl)cc2)c(C)c1,AC50,[5],2.5 µM (active)
same,EC50,Protein RecA,0.718 µM (active)
same,CC50,[9],9.81 µM (active)
same,EC50,[10],9.67 µM (active)
N#Cc1ccc(-n2c(-c3ccccc3)nnc2-c2ccccc2)cc1C#N,AC50,[5],3.83 µM (active)
same,EC50,Protein RecA,3.36 µM (active)
same,CC50,[9],> 40 µM (active)
NC(=S)n1[nH]c(-c2ccc([N+](=O)[O-])cc2)c(/N=N/c2cccc([N+](=O)[O-])c2)c1=O,AC50,[11],15.5 µM (active)
same,EC50,[12],11.6 µM (active)
same,EC50,[13],> 150 µM (inactive)
same,IC50,[14],4 µM (active)
same,IC50,[15],> 50 µM (inactive)
same,IC50,[16],42.5 µM (active)
same,IC50,[17],2.66 µM (active)
